Calls of active or inactive are those of the source. The rule behind the calls is not given here.
Tests used:
[1] = tested on: SK-N-MC; assay: Antiproliferative activity against human SK-N-MC cells by MTT assay; format: functional, cell-based
[2] = (§1) Inhibition of photosynthesis in spinach chloroplast; format: functional, Spinacia oleracea
[3] = Lipophilicity, log K of the compound; format: physicochemical; settings: octanol/water
[4] = tested on: Chlorella vulgaris; assay: Inhibition of Chlorella vulgaris Beij assessed as reduction of chlorophyll content; format: functional, organism-based
[5] = tested on: Spinacia oleracea; assay: as §1; format: functional

Row | SMILES | IC50 [1] | IC50 [2] | log K [3] | IC50 [4] | Activity [5] | Activity [4]
1 | NC(=S)N/N=C/c1ncccc1N [TRIAPINE] | 0.31 µM | – | – | – | – | –
2 | CN(C)C(=O)Nc1ccc(Cl)c(Cl)c1 [DCMU] | – | 1.9 µM | – | – | – | –
3 | Cc1ccc2c(C(=O)O)cccc2n1 | > 6.25 µM | 146 µM | 0.3629 | – | – | –
4 | COc1ccccc1/C=C/c1ccc2cccc(C(=O)O)c2n1 | – | – | 1.1922 | – | – | –
5 | Oc1ccccc1/N=C/c1ccc2cccc(O)c2n1 | > 6.25 µM | – | 0.4308 | 11 µM | – | –
6 | O=C(O)c1ccc2nc(/C=C/c3ccccc3Cl)ccc2c1 | > 6.25 µM | 215 µM | 1.4787 | 115 µM | – | –
7 | O=[N+]([O-])c1cc([N+](=O)[O-])c2cccnc2c1O | > 6.25 µM | 82 µM | 0.7154 | – | – | –
8 | Nc1cc(N)c2cccnc2c1O | > 6.25 µM | 185 µM | 0.0522 | 114 µM | – | –
9 | Oc1cccc2ccc(/C=C/c3ccc(Br)cc3)nc12 | > 6.25 µM | 135 µM | 1.5802 | – | – | –
10 | Oc1cccc2ccc(/C=C/c3ccc(Cl)cc3)nc12 | 0.77 µM | 448 µM | 1.5558 | – | – | –

Second part, led by results:

Row | IC50 [1] | IC50 [2] | log K [3] | IC50 [4] | SMILES | Activity [5] | Activity [4]
11 | – | – | 1.0911 | 17 µM | Oc1ccc(/N=C/c2ccc3cccc(O)c3n2)cc1 | – | –
12 | – | – | 0.886 | 168 µM | Oc1cccc(/N=C/c2ccc3cccc(O)c3n2)c1 | – | –
13 | – | – | 1.2171 | – | O=C(O)c1ccc(C(=O)O)c2nc(/C=C/c3cccc(Br)c3)ccc12 | – | –
14 | > 6.25 µM | – | 0.1515 | – | Cc1nc2ccccc2c(=O)[nH]1 | inactive | inactive
15 | > 6.25 µM | 487 µM | 1.3976 | 96 µM | O=C(O)c1cccc2nc(/C=C/c3ccc(Cl)cc3)ccc12 | – | –
16 | > 6.25 µM | 146 µM | 1.5395 | 33 µM | Oc1cccc2ccc(/C=C/c3cccc(Cl)c3)nc12 | – | –
17 | > 6.25 µM | 26 µM | 0.7292 | 95 µM | Cc1ccc2c([N+](=O)[O-])cc([N+](=O)[O-])c(O)c2n1 | – | –
18 | – | 142 µM | 0.2707 | – | Cc1ccc2c(N)cc(N)c(O)c2n1 | – | –
19 | > 6.25 µM | – | 1.2858 | – | O=C(O)c1ccc2ccc(/C=C/c3cccc(Cl)c3)nc2c1 | – | –

From ChEMBL document CHEMBL1146320, “Investigating biological activity spectrum for novel quinoline analogues” (Bioorg Med Chem, 2007)
